Test results from a melting point compilation (Tetko et al.; mined from patent text by program, amines drawn as free bases though some values may be those of a salt).

Row | SMILES | melting point [°C]
1 | CCCCNc1ccn2nccc2n1 | 75 to 76
2 | CC1(C)NC(=O)N(c2cc(Cl)c(F)c(Cl)c2)C1=O | 175 to 176
3 | N#CC(c1ccccc1)(c1ccccc1)[C@H]1CCCN(CCc2ccc(CO)cc2)C1 | 110 to 114
4 | CC1(C)CCC(=O)Nc2cc(OCCCCCN3CCN(c4cccc(Cl)c4Cl)CC3)ccc21 | 128 to 130
5 | CN1CCN(c2ccc(Br)cc2)CC1 | 78 to 80
6 | CCOC(=O)C(C(=O)OCC)c1c(Cl)cnc2c([N+](=O)[O-])cccc12 | 102
7 | CC(=O)N[C@H]1C(n2cc(Cl)cnc2=O)O[C@H](CO)[C@@H](O)[C@@H]1O (some centres undefined) | 156 to 158
8 | CN(c1ccncc1)c1csc2ncccc12 | 143 to 145
9 | CCCC(=NOCC)C1=C(O)CC2(CSCCSC2)OC1=O | 108 to 110
10 | CC(C)(C)c1csc(NC(=O)c2ccccc2)c1C#N | 130
11 | Cc1nc(C=Cc2nc3ccc(F)cc3c(=O)n2-c2ccccc2Br)cs1 | 233 to 234
12 | CC(=O)N1CC(=O)N2CCc3ccccc3C2C1 (centres undefined) | 144 to 145
13 | O=c1[nH][nH]c(=S)n(CCO)c1=O | 230
14 | CC(=O)Nc1ccc2ccccc2c1-c1c(P(=O)(c2ccccc2)c2ccccc2)ccc2ccccc12 | 95.4
15 | CCCCCc1cccc2c1C(=O)N(OC1C(O)C(CO)OC1n1cnc3c(N)ncnc31)C2=O (centres undefined) | 159 to 160
16 | NC(=O)CC(=O)NCCS | 100
17 | C[C@@H]1CC(=O)O[C@H](CCc2ccccc2)O1 | 49.7 to 50.9
18 | c1ccc(N2CCN(c3nsc4nc5ccccc5n34)CC2)nc1 | 176 to 178
19 | CC(=O)Nc1nc2c(s1)C(=O)CCC2 | 268 to 272
20 | COc1ccc2c(c1)C(c1ccc(N)cc1)=NN(C(C)=O)C(C)C2 (centres undefined) | 237 to 238
21 | COC(=O)C1=C(C)Nc2c(c(=O)n(C)c(=O)n2C)C1c1cccc([N+](=O)[O-])c1 (centres undefined) | > 230
22 | CC(C)(CCCCCC(=O)CCCCCC1(C(=O)O)CC1)C(=O)O | 65 to 66
23 | Cc1c(C=O)c2c(c(C)c1NC(=O)CC(C)(C)C)CC(C)(C)O2 | 180 to 181

Row | SMILES | melting point [°C]
24 | CC(=O)NCCC1CCc2ccn3nc(C)c(C)c3c21 (centres undefined) | 134 to 135
25 | Cn1nc(C(F)(F)F)cc1Oc1nc(Oc2cc(C(F)(F)F)nn2C)c(F)c(Oc2cc(C(F)(F)F)nn2C)c1F | 119
26 | NCCc1c[nH]c2cc3c(cc12)C(=O)NCC3 | 82 to 86
27 | NC(CO)(CO)C(=O)O | 109 to 112
28 | CCOC(=O)CN(C)C(=O)c1ccn2c1CNc1ccccc1C2 | 147 to 148
29 | COC(=O)Cn1sc2ccccc2c1=O | 89 to 91
30 | COC(=O)c1ccc(N)cc1C(=O)OC | 83 to 85
31 | Nc1cn(-c2cncc(F)c2)nc1Cl | 149 to 151
32 | CCCc1ccccc1OCCCCCOc1coc(C=O)cc1=O | 95 to 96
33 | CCc1cc(CC)c(NC(=S)NC2CCCCC2)c(CC)c1 | 97 to 99
34 | CC(=O)Nc1cc2c(c(C(=O)O)c1)NCCO2 | 253
35 | CC1=CCCN(C)C1COC(=O)c1c[nH]c2ccccc12 (centres undefined) | 172
36 | CCOC(=O)C1=C(C)NC(N)=C(C(=O)OCCOC)C1c1cccc([N+](=O)[O-])c1 (centres undefined) | 174
37 | COC(=O)[C@@H]1C[C@H](OC(=O)Nc2ccc([N+](=O)[O-])cc2)C(=O)[C@H]2[C@@]1(C)CC[C@H]1C(=O)O[C@H](c3ccoc3)C[C@]21C | 251 to 253
38 | CC(C)C[C@H](N)C(=O)N[C@@H](CC1CCCCC1)[C@@H](O)c1nccs1 | 140 to 141
39 | CCCCCCc1ccc(CCCCC(COC(C)=O)(COC(C)=O)NC(C)=O)cc1 | 61 to 64
40 | O=c1cc(NCCN2CCN(c3cc(Cl)cc4c3OCCO4)CC2)cn[nH]1 | 115 to 117
41 | CSc1nc(N2CCN(CCCCN3C(=O)CC4(CCCC4)CC3=O)CC2)ncc1F | 83 to 85
42 | COc1ccc(N2CCN(C[C@@H](O)COc3cccc(-c4noc5ccsc45)c3)CC2)cc1 | 110 to 113
43 | CC1(C)Cc2cc(OCCO)c3c(c2C(c2ccccc2)=N1)CC(C)(C)O3 | 90 to 92
44 | CNc1nc(O)nc2c(Cl)cc(OC)c(OC)c12 | 219 to 221
45 | Nc1nc2c(ncn2[C@@H]2C[C@H](O)[C@@H](O)[C@H]2O)c(=O)[nH]1 (racemic) | 295
46 | CCOC(=O)c1ncc2[nH]c3c(c2c1COC)C(=O)CCC3 | 249 to 250

Next, values leading:

Row | melting point [°C] | SMILES
47 | 236 to 240 | O=C1Cn2nccc2-c2ccccc2N1
48 | 124 to 125 | CC1(C)CC(c2ccccn2)c2cc(Cl)ccc2O1 (centres undefined)
49 | 254 to 256 | O=c1oc2c(O)c(O)ccc2c2ccccc12
50 | 173 to 174 | CCCCCc1cc2c(cc1/C=C/c1ccc(C(=O)O)cc1)C(C)(C)CCC2(C)C
51 | 95 to 97 | COc1ccc(Cc2nc3cccc(CCCO)c3o2)cc1OC
52 | 118 | O=[N+]([O-])c1cccc(Oc2cc(Oc3cccc([N+](=O)[O-])c3)cc(C(F)(F)F)c2)c1
53 | 230 to 231 | CNC(=O)c1cccc(NC(=O)Cc2c(C)ccc3ccccc23)c1
54 | 176 to 180 | O=C(O)C(=O)CC(=O)c1cccn1Cc1ccccc1Br
55 | 113 to 115 | CS(=O)(=O)c1ccc(C=Cc2ccc(NCCCCCCO)cc2)cc1
56 | 246 | Cc1cc(C#N)cc(C(=O)Nc2ccnc(F)c2)n1
57 | 180 to 186 | N=C(NO)c1cc(C(F)(F)F)cc(-c2ccc(Cl)cc2)n1
58 | 230 to 231 | Cc1nc2c(N)nc3ccccc3c2n1CCCNC(=O)c1ccccc1
59 | 218 to 220 | N#CCc1ccccc1-c1ccc(C(=O)O)cc1
60 | 199 to 201 | Cc1nc(-c2ccccc2)c(NC(=O)Nc2ccccc2)s1
61 | 96 to 98 | CCOC(=O)COc1cc(Cl)c(C(=O)c2ccc([N+](=O)[O-])cc2)c(Cl)c1
62 | 146 to 148 | O=c1cc(C(F)(F)F)cnn1-c1c(F)cc(Cl)c(O)c1[N+](=O)[O-]
63 | > 275 | N#Cc1ccc(N2CCc3[nH]c4c(cnc5cc(Cl)ccc54)c3C2)cc1
64 | 105 to 109 | BrCC=C(c1ccc(I)cc1)c1ccc(I)cc1
65 | 116 to 117 | O=C(O)Cc1cc2c(cc1Cc1ccccc1)OCO2
66 | 235 | CCOC(=O)Nc1nc2cc(-c3cccnc3)cc(-c3ccccn3)c2s1

Row | melting point [°C] | SMILES
67 | 169 to 171 | Nc1ccc(C(=O)O)c2ccccc12
68 | 164 to 165 | N=C(Nc1ccc(CCCC(=O)Nc2ccccc2)cc1)N1CCCC1
69 | 190 to 196 | CCc1c(-c2ccccc2)c2c(c3c1[nH]c1ccc(O)cc13)C(=O)NC2=O
70 | 144 to 146 | COc1ccc2c(c1)CC(Nc1ccc(O)cc1)C2 (centres undefined)
71 | 240 to 241 | Cc1cc(=O)n2cccc(S)c2n1
72 | 135 to 137 | CCCCCc1nc(NC(=N)N)sc1-c1cccc([N+](=O)[O-])c1
73 | 89 to 90 | COCCOc1ccc(CCCNS(C)(=O)=O)c(Oc2ncc(C(F)(F)F)cc2Cl)c1
74 | 190 to 193 | Cc1cccc(N2CCOC2=O)c1COc1cccn2c(CO)c(C)nc12
75 | 201 to 202 | CNC(=O)CC1CN=C(c2cc3cc(Oc4ccc(S(C)(=O)=O)nc4)cc(OC)c3[nH]2)S1 (centres undefined)
76 | 131 to 132 | CCCCc1c(CNC(=O)OC(C)(C)C)c(CC(C)C)nc2ccc(OCc3ccccc3)cc12
77 | 171 to 176 | Cn1ccnc1CCNS(=O)(=O)c1ccccc1NS(=O)(=O)c1cccc(C(F)(F)F)c1
78 | 92 to 93 | COc1cc(OC)nc(Cc2nscc2C(=O)N(C)c2ccccc2)n1
79 | 140 | CCCC#Cc1cnc(-c2ccc(C(F)(F)F)cc2)nc1
80 | 166 to 167 | NNC(=S)c1ccc2ccccc2c1
81 | 182 | O=c1c([N+](=O)[O-])c(O)c2cccnc2n1Cc1ccccc1
82 | 145 to 147 | O=C(O)Cc1cccc2c(=O)cc(-c3ccc(F)c(F)c3)oc12
83 | 124 to 126 | CCCc1nc(C)c2nnc3ccc(F)cc3n12
84 | 79 to 81.5 | COC(=O)Cc1nc(-c2ccc(OC)cc2)c(-c2ccc(OC)cc2)s1
85 | 178 to 186 | O=C(Nc1ccccc1C(=O)NCCc1ncc[nH]1)c1ccc(Cl)cc1Cl
86 | 153 to 155 | CSC(C(N)=O)c1cccc(C(=O)c2ccccc2)c1N (centres undefined)

Row | melting point [°C] | SMILES
87 | 80 | CC(C)(C)c1cccc(S(=O)(=O)n2c(CBr)cc3cc(C(F)(F)F)ccc32)c1
88 | 47 to 48 | CC(O)CCCCCc1ccc(-c2ccccc2)cc1 (centres undefined)
89 | 115 to 117 | O=C1CN2CCCCC2=NN1c1ccc(Cl)cc1Cl
90 | 207 to 209 | C=CCc1c(O)ccc2ccc(=O)[nH]c12
91 | 132 to 133 | CC(C)c1nc2c(OCc3ccccc3)cc(Br)cc2n1C
92 | 299 to 301 | O=c1[nH]c2ncc(-c3cccc(-c4cn[nH]n4)c3)nc2n1CC1CCCCC1
93 | 216 to 217 | CC(=O)Nc1cc(-c2sc(-c3ccc(S(C)(=O)=O)cc3)nc2-c2cccc(Cl)c2)ccn1
94 | 163 to 165 | c1ccc2c(NC3CCCC3)nnc(Cc3ccncc3)c2c1
95 | 130 to 131 | CCOc1nn(-c2ccc(C(F)(F)F)cn2)cc1CCCOc1ccc(Cl)cc1CC(=O)O
96 | 147 to 150 | Nc1nn(Cc2ccccc2)c2nc(N3CCOCC3)cc(-c3ccccc3)c12
97 | 225 to 227 | CNC(=O)Nc1cc(-c2c(-c3ccc(F)c(C)c3)nc3cccnn23)ccn1
98 | 116 to 117 | COc1ccc2c(ccn2CC(=O)c2ccccc2Br)n1
99 | 78 to 81 | Cc1cc(-n2ncc(=O)[nH]c2=O)cc(Cl)c1Oc1ccc(O)c(S(=O)(=O)c2ccccc2)c1
100 | 140 to 142 | CON(c1ccc([N+](=O)[O-])cc1C#N)S(=O)(=O)c1ccc(Cl)c(C(F)(F)F)c1
101 | 86 to 88 | CC(=O)OCc1ccc(Cl)cc1C(O)c1ccccc1 (centres undefined)
102 | 108 to 109 | Cc1ccccc1Sc1cccc2c1OC(=O)C2
103 | 224 to 226 | COc1ccc2cc(C(N)=O)ccc2c1
104 | 172 to 174 | CC(=O)NC(C(=O)NCc1cccnc1)c1ccco1 (centres undefined)
